Assay results as given in PMC4569415, “Pro-Oxidant Activity of Amine-Pyridine-Based Iron Complexes Efficiently Kills Cancer and Cancer Stem-Like Cells” (PLoS ONE, 2015).
Counter-ions that a name gives are not always drawn.

What was measured:
[1] = system: CAPAN-1 cells; experiment: MTT cytotoxicity assay; format: cell-based, human; conditions: MTT, 48 h of compound exposure
Experimental: (§1) The cytotoxic activity of the compounds was determined by MTT reduction assay as described. Compounds were diluted in Milli-Q water to obtain 1 mmol/L stock solutions. Appropriate aliquots of these solutions were diluted in the corresponding cell culture medium to obtain the final working concentrations. Aliquots of 5000 1BR3G cells, 6000 MCF-7, 6000 PC-3 cells, 10 000 CAPAN-1 cells, 4000 MCF 10A cells, 4000 HMLE cells or 4000 CCD-18Co cells were seeded in 96-well plates, 24 h prior to the treatments. Hematological cell lines were seeded at 400 000 cells/mL. Cells were treated with the corresponding compound at concentrations ranging from 0 to 100 μmol/L for 48 h. Three replicates for each compound were used. The IC50 was established for each compound by standard non-linear regression and curve fitting using GraphPad Prism (Graph Pad software Inc., La Jolla, CA, USA).

[2] = system: MCF-7 cells; experiment: MTT cytotoxicity assay; format: cell-based, human; conditions: MTT, 48 h of compound exposure
Experimental: as §1

[3] = Hemolytic assay; format: cell-based; conditions: human, erythrocyte suspension of fresh human blood (5% vol/vol)
Experimental: The hemolytic activity of the compounds at 100 μmol/L was evaluated by determining hemoglobin release from erythrocyte suspensions of fresh human blood (5% vol/vol) as described.

[4] = system: JURKAT; experiment: MTT cytotoxicity assay; format: cell-based; conditions: Homo sapiens, 48 h of treatment
Experimental: as §1

[5] = system: CCD-18Co; experiment: MTT cytotoxicity assay; format: cell-based; conditions: Homo sapiens, 48 h of treatment, non malignant cells
Experimental: as §1

[6] = system: 1BR3G; experiment: MTT cytotoxicity assay; format: cell-based; conditions: Homo sapiens, 48 h of treatment, non malignant cells
Experimental: as §1

[7] = system: Z-138; experiment: MTT cytotoxicity assay; format: cell-based; conditions: Homo sapiens, 48 h of treatment
Experimental: as §1

[8] = system: MCF-10A; experiment: MTT cytotoxicity assay; format: cell-based; conditions: Homo sapiens, 48 h of treatment, non malignant cells
Experimental: as §1

[9] = system: PC-3; experiment: MTT cytotoxicity assay; format: cell-based; conditions: Homo sapiens, 48 h of treatment
Experimental: as §1

[10] = system: HMLE; experiment: MTT cytotoxicity assay; format: cell-based; conditions: Homo sapiens, 48 h of treatment, non malignant cells
Experimental: as §1

[11] = system: MCF-7 cells; experiment: Cellular labile iron pool with calcein-AM; format: cell-based, human; conditions: MCF-7
[12] = system: HMLER cells; experiment: MTT cytotoxicity assay in non-CS-like parental cells; format: cell-based; conditions: Homo sapiens, 48 h
Experimental: as §1
(§2) Fig 2 Cell viability assay. (A) Cytotoxic activity of compounds 1, 2, and 5 against cancer cells. The indicated cell lines were treated for 48 h with ligands (10 μmol/L) and cell viability was measured with the MTT assay. Data represents the percentage of viable cells relative to untreated cells (control). (B) Cytotoxicity of doxorubicin and compounds 1, 2 and 5 against CS-like cells. CS-like HMLER-shEcad cells and non-CS-like HMLER isogenic parental cells were treated for 48 h with graded concentrations of doxorubicin, 1, 2 and 5. Cell viability was measured with the MTT assay. For each treatment, the percentage of viable cells relative to untreated cells is indicated. Data represents the mean±SD of 3 independent experiments performed in triplicate.

[13] = system: CS-like HMLER-shEcad cells; experiment: MTT cytotoxicity assay in cancer stem-like cells; format: cell-based, human; conditions: 48 h
Experimental: as §1, §2

[14] = system: CAPAN-1 cells; experiment: Cellular labile iron pool with calcein-AM; format: cell-based, human; conditions: CAPAN-1, 100 μmol/L, 24 h
Experimental: The cellular labile iron pool was determined with calcein-AM. CAPAN-1 cells (125 000 cells/ well) were seeded in 24-well plates and incubated for 24 h. Then, cells were treated for 24 h with 10 μmol/L of compound 1, 2 or 5 at 37°C. In some experiments, cells were incubated for 2 h with 100 μmol/L of DFO or 100 μmol/L FeCl2. Cells exposed to the vehicle alone were used as a control. After treatments, cells were washed with PBS and incubated with calcein-AM (0.25 μmol/L) for 30 min at 37°C in the dark. Subsequently, cells were washed and collected with trypsin and the geometric mean fluorescence intensity of 10 000 cells was determined by flow cytometry as described.

[15] = system: MCF-7 and CAPAN-1 cells; experiment: MTT cell viability with modulators (QVD-Oph, FeCl2); format: cell-based, human; conditions: FeCl2 alone at 1, 10 or 100 μmol/L, 48 h
Experimental: as §1
Fig 4 Induction of caspase activity. (A) The indicated cell lines were treated for 48 h with compounds 1, 2 and 5 (10 μmol/L) and caspase 3/7 activity was measured as indicated in Materials and Methods. Bar charts show the fold increase in caspase activity relative to untreated (control) and represent the mean±SD from three independent experiments performed in triplicate. (B) MCF-7 and CAPAN-1 cells were treated for 48 h with the ligands (10 μM) in the absence (-) or presence (+) of the pan-caspase inhibitor QVD-Oph (20 μM) and cell viability was measured with the MTT assay. […] Data represents the mean ± SD of 3 independent experiments performed in triplicate. The differences between absence and presence of QVD-OPh treatment were statistically significant at * p<0.05, **p<0.01 and ***p<0.001.
Fig 9 Effects of iron on 1, 2 and 5 activity. (A) Effect of 2 h FeCl2 pre-incubation (FeCl2 p) (dotted line) or co-incubation (FeCl2 c) (dashed line) at 1, 10 or 100 μmol/L on the cytotoxicity of 2 (5 μmol/L) in MCF-7 and CAPAN-1 cells. FeCl2 alone was included as a control (solid line). Cell viability was determined after 48 h of treatment by the MTT assay. (B) Effect of FeCl2 pre-incubation or co-incubation (100 μmol/L) on the cytotoxicity of 2 (5 μmol/L), 1 and 5 (10 μmol/L). Cells treated with the ligands alone were included as a reference (control). (C) ROS induction in CAPAN-1 cells after 24 h treatment with 2 (10 μmol/L) alone, together with FeCl2 or after FeCl2 pre-incubation (at 100 μmol/L). Results are presented as a percentage of untreated cells and represent mean±SD of 3 independent experiments. *p < 0.05 versus control cells.

## N.N.[Cl][Pt][Cl] [Cisplatin, reference compound]
[1]
  IC50: 2.2 ± 0.3 µM
[2]
  IC50: 2.4 ± 0.4 µM

## CN(Cc1ccccn1)[C@H]1CCCC[C@@H]1N(C)Cc1ccccn1 [Compound 3]
[3]
  hemolysis at 100 µM: 0%
[4]
  IC50: > 100 µM
[5]
  IC50: > 100 µM
[6]
  IC50: 45 ± 1 µM
[7]
  IC50: 16.5 ± 1.4 µM
[8]
  IC50: 39.7 ± 2.9 µM
[9]
  IC50: 35 ± 4.2 µM
[10]
  IC50: 32.5 ± 3.8 µM
[1]; Homo sapiens, CAPAN-1
  IC50: 27.7 ± 2.9 µM
[2]; Homo sapiens, MCF7
  IC50: 40.6 ± 2.5 µM

## CC(=O)N(O)CCCCCNC(=O)CCC(=O)N(O)CCCCCNC(=O)CCC(=O)N(O)CCCCCN [DFO, deferoxaminemesylate salt, reference compound]
[11]
  calcein fluorescence increase after DFO incubation: 132.1±16.5%

## COc1cccc2c1C(=O)c1c(O)c3c(c(O)c1C2=O)C[C@@](O)(C(=O)CO)C[C@@H]3O[C@H]1C[C@H](N)[C@H](O)[C@H](C)O1 [doxorubicin, reference compound]
[12]
  IC50: 0.1 ± 0.02 µM
[13]
  fold increase in IC50, HMLER-shECad vs HMLER: ~ 3 fold
[13]; Homo sapiens
  IC50: 0.3 ± 0.02 µM

## CN1CCN(C)CCN(Cc2ccccn2)CC1 [Compound 4]
[3]
  hemolysis at 100 µM: 0%
[4]
  IC50: > 100 µM
[5]
  IC50: > 100 µM
[6]
  IC50: 78 ± 8.5 µM
[7]
  IC50: 23.1 ± 1.8 µM
[8]
  IC50: > 100 µM
[9]
  IC50: > 100 µM
[10]
  IC50: 47.7 ± 4.5 µM
[1]; Homo sapiens, CAPAN-1
  IC50: 32 ± 10.4 µM
[2]; Homo sapiens, MCF7
  IC50: 88.5 ± 0.7 µM

## [Cl][Fe][Cl] [FeCl2, reference compound]
[14]
  calcein fluorescence intensity, % of control cells: 74.2±15.5%
[15]
  effect on cell viability: did not affect the viability
